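Results reflect a 48-hour exposure of cells in 96-well plates to compound at five concentrations. GI50: concentration for 50% inhibition of growth.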 The source made the active and inactive calls. Rule as the data show it: active = GI50 up to about 1.1 µM and inactive = higher.
Columns and labels:
Experiment in all cases: inhibition of tumour cell growth, NCI panel, 48 h
UACC-257 = system: UACC-257
A549 = system: A549
CCRF-CEM = system: CCRF-CEM
Malme-3M = system: Malme-3M
SK-MEL-5 = system: SK-MEL-5
SW-620 = system: SW-620
NCI-H522 = system: NCI-H522
MDA-N = system: MDA-N
NCI-H226 = system: NCI-H226
786-0 = system: 786-0
CAKI-1 = system: CAKI-1
SNB-19 = system: SNB-19
HCT-116 = system: HCT-116
MDA-MB-231 = system: MDA-MB-231
SK-OV-3 = system: SK-OV-3
A498 = system: A498
OVCAR-3 = system: OVCAR-3
HT-29 = system: HT-29
NCI-H23 = system: NCI-H23
OVCAR-4 = system: OVCAR-4

SMILES | GI50 (UACC-257) | GI50 (A549) | GI50 (CCRF-CEM) | GI50 (Malme-3M) | GI50 (SK-MEL-5) | GI50 (SW-620) | GI50 (NCI-H522) | GI50 (MDA-N) | GI50 (NCI-H226) | GI50 (786-0) | GI50 (CAKI-1) | GI50 (SNB-19) | GI50 (HCT-116) | GI50 (MDA-MB-231) | GI50 (SK-OV-3) | GI50 (A498) | GI50 (OVCAR-3) | GI50 (HT-29) | GI50 (NCI-H23) | GI50 (OVCAR-4)
CCC1(N)C(=O)OCc2c1cc1n(c2=O)Cc2cc3ccccc3nc2-1 (centres undefined) | 36.6 µM (inactive) | 6.58 µM (inactive) | 0.859 µM (active) | 44.3 µM (inactive) | 5.21 µM (inactive) | 25.7 µM (inactive) | 9.51 µM (inactive) | 17.7 µM (inactive) | 6.08 µM (inactive) | 3.74 µM (inactive) | 2.84 µM (inactive) | 7.67 µM (inactive) | 4.67 µM (inactive) | 77.4 µM (inactive) | > 100 µM (inactive) | 4.74 µM (inactive) | > 55.7 µM (inactive) | 15 µM (inactive) | 4.56 µM (inactive) | 50 µM (inactive)
C#C[C@]1(O)CC[C@H]2[C@@H]3CCC4=C/C(=N\OCCN(CC)CC)CC[C@]4(C)[C@H]3CC[C@@]21C | 4.31 µM (inactive) | 5.77 µM (inactive) | 3.33 µM (inactive) | 3.25 µM (inactive) | 2.44 µM (inactive) | 7.18 µM (inactive) | 2.42 µM (inactive) | 2.18 µM (inactive) | 11.9 µM (inactive) | 2.7 µM (inactive) | 7.93 µM (inactive) | 5.06 µM (inactive) | 3.44 µM (inactive) | 13.6 µM (inactive) | 9.4 µM (inactive) | 10.8 µM (inactive) | 2.87 µM (inactive) | 3.74 µM (inactive) | 5.22 µM (inactive) | 12.5 µM (inactive)
N/C(=N\Nc1nc2cc([N+](=O)[O-])ccc2o1)c1ccccn1 | 0.0929 µM (active) | 0.163 µM (active) | < 0.0223 µM (active) | 0.401 µM (active) | 0.157 µM (active) | 0.113 µM (active) | 0.043 µM (active) | 0.189 µM (active) | 0.418 µM (active) | 0.0897 µM (active) | 0.16 µM (active) | 0.506 µM (active) | 0.0369 µM (active) | 0.114 µM (active) | 0.403 µM (active) | 0.248 µM (active) | 0.0422 µM (active) | 0.0493 µM (active) | 0.229 µM (active) | 0.179 µM (active)
C/C=C1\CC(C(=O)OCC)CCCCCCC1=O (centres undefined) | > 100 µM (inactive) | > 100 µM (inactive) | 19.1 µM (inactive) | > 100 µM (inactive) | > 100 µM (inactive) | > 100 µM (inactive) | 99.8 µM (inactive) | > 100 µM (inactive) | > 100 µM (inactive) | > 100 µM (inactive) | > 100 µM (inactive) | > 100 µM (inactive) | > 100 µM (inactive) | > 100 µM (inactive) | > 100 µM (inactive) | > 100 µM (inactive) |  | > 100 µM (inactive) | > 100 µM (inactive) | > 100 µM (inactive)
CCOC(=O)C1c2[nH]c3ccccc3c2CCN1C(=O)c1ccc(OC)o1 (centres undefined) | > 10 µM (inactive) |  | > 10 µM (inactive) | 1.29 µM (inactive) | > 10 µM (inactive) | > 10 µM (inactive) | > 10 µM (inactive) | > 10 µM (inactive) | > 10 µM (inactive) | > 10 µM (inactive) | > 10 µM (inactive) | > 10 µM (inactive) |  | > 10 µM (inactive) | > 10 µM (inactive) | > 10 µM (inactive) | > 10 µM (inactive) | > 10 µM (inactive) | > 10 µM (inactive) | > 10 µM (inactive)
CN(CC(=O)Nc1ccccc1C(=O)O)c1ccccc1 | > 100 µM (inactive) | > 100 µM (inactive) | > 100 µM (inactive) | > 100 µM (inactive) | > 100 µM (inactive) | 90.2 µM (inactive) | > 100 µM (inactive) | > 100 µM (inactive) | > 100 µM (inactive) | > 100 µM (inactive) | > 100 µM (inactive) | > 100 µM (inactive) | 84.3 µM (inactive) | > 100 µM (inactive) |  | > 100 µM (inactive) | > 100 µM (inactive) | > 100 µM (inactive) | > 100 µM (inactive) | > 100 µM (inactive)
Cc1c(NC(=S)NN)c(=O)n(-c2ccccc2)n1C | > 100 µM (inactive) | > 100 µM (inactive) | > 100 µM (inactive) | 32.3 µM (inactive) | > 100 µM (inactive) | > 100 µM (inactive) | 0.637 µM (active) | > 100 µM (inactive) | 1.58 µM (inactive) | > 100 µM (inactive) | > 100 µM (inactive) | > 100 µM (inactive) | > 100 µM (inactive) | 0.0796 µM (active) | > 100 µM (inactive) | > 100 µM (inactive) | > 100 µM (inactive) | > 100 µM (inactive) |  | > 100 µM (inactive)
Cc1ccc(F)cc1NC(=O)O/N=C(\Cl)C(C)C | 19 µM (inactive) | 18.9 µM (inactive) | 1.9 µM (inactive) | 2.7 µM (inactive) | 6.97 µM (inactive) | 2.35 µM (inactive) | 0.791 µM (active) | 5.62 µM (inactive) | 14 µM (inactive) | 5.69 µM (inactive) | 1.72 µM (inactive) | 35.5 µM (inactive) | 5.28 µM (inactive) | 14.1 µM (inactive) | 20.2 µM (inactive) | 20 µM (inactive) | 6.47 µM (inactive) | 14.6 µM (inactive) | 17.9 µM (inactive) | 16 µM (inactive)
Cc1ccc(C(=O)Nc2ccc(S(=O)(=O)O)c3cc(S(=O)(=O)O)cc(S(=O)(=O)O)c23)cc1NC(=S)Nc1cc(C(=O)Nc2ccc(S(=O)(=O)O)c3cc(S(=O)(=O)O)cc(S(=O)(=O)O)c23)ccc1C | > 75 µM (inactive) | > 75 µM (inactive) | > 75 µM (inactive) | > 75 µM (inactive) | > 75 µM (inactive) | > 75 µM (inactive) | > 75 µM (inactive) | > 75 µM (inactive) | > 75 µM (inactive) | > 75 µM (inactive) | > 75 µM (inactive) | > 75 µM (inactive) | > 75 µM (inactive) | > 75 µM (inactive) |  | > 75 µM (inactive) | > 75 µM (inactive) | > 75 µM (inactive) | > 75 µM (inactive) | > 75 µM (inactive)
C/C(=N\N=C(/S)N(C)C)c1cccnn1 | 0.438 µM (active) | 0.832 µM (active) | 0.275 µM (active) | 0.76 µM (active) | 0.486 µM (active) | 0.612 µM (active) | 0.74 µM (active) | 0.752 µM (active) | 0.849 µM (active) | 0.486 µM (active) | 0.853 µM (active) | 1.46 µM (inactive) | 0.369 µM (active) | 0.745 µM (active) | 1.26 µM (inactive) | 1.22 µM (inactive) | 0.424 µM (active) | 0.569 µM (active) | 1.13 µM (inactive) | 0.608 µM (active)
